According to patent US20260078130A1, “NAMPT MODULATORS, PREPARATIONS, AND USES THEREOF” (SIRONAX LTD., priority 2022, published 2026):

Assays:
[1] = biological target: T1, human enzyme NAMPT (full length) (Homo sapiens, UniProt P43490); assay: NMN fluorescence biochemical assay (stimulation of NMN synthesis by NAMPT); details: for EC50: NMN fluorescence assay, purified human NAMPT 100 nM, concentration giving half-maximal activation, read-out: Enzymatic EC50; for Enzymatic Emax: fold change of maximal activation compared to DMSO
T1 construct: human enzyme NAMPT (full length)
T1 sequence (P43490 whole entry): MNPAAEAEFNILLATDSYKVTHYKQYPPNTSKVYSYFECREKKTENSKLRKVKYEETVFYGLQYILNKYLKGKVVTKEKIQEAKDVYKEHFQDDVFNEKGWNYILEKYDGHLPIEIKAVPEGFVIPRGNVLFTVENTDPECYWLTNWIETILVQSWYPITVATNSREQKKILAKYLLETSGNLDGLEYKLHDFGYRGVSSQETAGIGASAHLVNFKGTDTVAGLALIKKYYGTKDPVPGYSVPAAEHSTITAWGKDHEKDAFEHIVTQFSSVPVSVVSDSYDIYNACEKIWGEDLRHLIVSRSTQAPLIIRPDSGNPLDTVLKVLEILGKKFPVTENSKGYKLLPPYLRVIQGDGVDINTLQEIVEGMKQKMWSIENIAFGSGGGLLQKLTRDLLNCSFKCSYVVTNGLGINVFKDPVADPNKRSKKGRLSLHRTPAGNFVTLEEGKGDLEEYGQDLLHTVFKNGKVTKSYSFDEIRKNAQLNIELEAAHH
Summary of the method: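 Full-length human NAMPT (100 nM) was preincubated 15 min at 37 °C with compound in 50 mM Tris-HCl pH 7.5, 10 mM MgCl2, 2 mM DTT, then reacted 1 h at 37 °C with 50 μM NAM, 100 μM PRPP, 4 mM ATP (stated solution concentrations). NMN was derivatised with acetophenone/KOH then formic acid and read at Ex/Em 382/445 nm; EC50 and Emax (fold over DMSO) reported.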

[2] = test system: endogenous NAMPT in U2OS cells; assay: Cellular NAD+ modulation assay (NAD/NADH-Glo, U2OS cells); type: cell-based; details: Homo sapiens, 24 hours incubation, cellular NAD+; for maximal fold induction: read-out: Cellular Emax
Summary of the method: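 NAD/NADH-Glo luminescence quantified NAD+ after acid treatment (60 °C, 15 min) and neutralization of DTAB lysates. Beforehand, U2OS cells seeded 16 h earlier received compound concentration series for 24 h at 37 °C. Values given as half-maximal activation concentration (EC50) and maximal fold change versus DMSO (Emax).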

SMILES	EC50 [1] [µM]	Enzymatic Emax [1]	EC50 [2] [µM]	maximal fold induction [2]
COc1ccc(CN2C(=O)c3ccc(C4CC4)cc3C2Cc2c(C)ncnc2C#N)cc1 (stereo not shown) [Compound 638, 5-((6-cyclopropyl-2-(4-methoxybenzyl)-3-oxoisoindolin-1-yl)methyl)-6-methylpyrimidine-4-carbonitrile]	0.5 to 5	A (A>3)	< 0.5	1.2 to 1.5
COc1ccc(CN2C(=O)c3ccc(Cl)cc3C2Cc2c(C)ncnc2C#N)cn1 (stereo not shown) [Compound 639, 5-((6-chloro-2-((6-methoxypyridin-3-yl)methyl)-3-oxoisoindolin-1-yl)methyl)-6-methylpyrimidine-4-carbonitrile]	≥ 5	B (3≥B>2)	0.5 to 5	1.2 to 1.5
COc1ccc(CN2C(=O)c3ccc(C4CC4)cc3C2Cc2c(C)ncnc2C#N)cn1 (stereo not shown) [Compound 640, 5-((6-cyclopropyl-2-((6-methoxypyridin-3-yl)methyl)-3-oxoisoindolin-1-yl)methyl)-6-methylpyrimidine-4-carbonitrile]	≥ 5	A (A>3)	0.5 to 5	1.2 to 1.5
COc1ccc(CN2C(Cc3c(Cl)cnn3C)c3ccccc3S2(=O)=O)cc1 (stereo not shown) [Compound 641, 3-((4-chloro-1-methyl-1H-pyrazol-5-yl)methyl)-2-(4-methoxybenzyl)-2,3-dihydrobenzo[d]isothiazole 1,1-dioxide]	≥ 5	A (A>3)	< 0.5	1.2 to 1.5
